Laboratory results taken from patent EP0278940A2, “Hepatitis B virus surface antigens and hybrid antigens containing them” (SMITHKLINE BIOLOGICALS S.A., priority 1987, dated 1988).

Tested on: synthetic preS2 peptide
Assay: Immunogenicity in mice: anti-preS2 antibodies by solid phase RIA on synthetic preS2 peptide
Type: in vivo, mice: Balb/c (H₂-d) and NMRl (H₂-Q)
Conditions: Balb/c and NMRl mice, I.P., one month, pooled sera
Procedure: The immunogenicity of particles prepared from extracts of cells containing pRIT12660 (Example 16) was studied in 2 strains of mice: Balb/c (H₂-d) and NMRl (H₂-Q). The particles were absorbed on Al(OH)₃ before injection and the mice (5 mice/group) were injected intraperitoneally (I.P.) with 0.3 µg of RIA reacting material. One month after the immunization, the mice were bled and the sera from the mice of the same group were pooled. The titer of anti-S antibodies was determined in the pools by using the AUSAB kit (Abbott Labs) and the WHO reference. The titers were converted in mIU/ml by using the Hollinger formula (Hollinger et al., in Szmuness et al., eds. Viral Hepatitis, Philadelphia : Franklin Institute Press, 451-466, 1982). The anti-preS2 antibodies were determined using a solid phase assay (RIA) in which the synthetic preS2 peptide given in Example 23, is absorbed on plastic and bound antibodies were detected with a goat anti-mouse IgG labelled with ¹²⁵I. […] PreS determinants enhance the response to the S determinants. This enhancing effect is not shown if the preS2 synthetic peptide is injected together with particles which lack the preS2.

## CSCC[C@H](N)C(=O)N[C@@H](CCC(=O)O)C(=O)N[C@@H](Cc1c[nH]c2ccccc12)C(=O)N[C@@H](CC(N)=O)C(=O)N[C@@H](CO)C(=O)N[C@H](C(=O)N[C@@H](C)C(=O)N[C@@H](Cc1ccccc1)C(=O)N[C@@H](Cc1c[nH]cn1)C(=O)N[C@@H](CCC(N)=O)C(=O)N[C@@H](C)C(=O)N[C@@H](CC(C)C)C(=O)N[C@@H](CCC(N)=O)C(=O)N[C@@H](CC(=O)O)C(=O)N1CCC[C@H]1C(=O)N[C@@H](CCCNC(=N)N)C(=O)N[C@H](C(=O)N[C@@H](CCCNC(=N)N)C(=O)NCC(=O)N[C@@H](CC(C)C)C(=O)N[C@@H](Cc1ccc(O)cc1)C(=O)N[C@@H](CC(C)C)C(=O)N1CCC[C@H]1C(=O)N[C@@H](C)C(=O)NCC(=O)N[C@@H](CS)C(=O)O)C(C)C)[C@@H](C)O [preS2 synthetic peptide]
  induction of anti-preS2 peptide antibodies: unable to elicit anti-preS2 antibodies
